# Results: patent publication US6706663B2, “Herbicidal 3-heterocyclic substituted benzisothiazole and benzisoxazole compounds” (Wyeth, priority 2000, dated 2004)
# How the values were obtained:
# [1] = tested on: ZEAMX (Corn, Field); assay: Postemergence herbicidal evaluation; assay type: in vivo, Zea mays, L.
# In short: (§1)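 Visual 0–9 injury scores versus control plants, covering stand, vigour, malformation, size, chlorosis and general appearance, taken four to five weeks post-spray and averaged over replicate tests. Plants were sprayed at roughly two weeks old and held on greenhouse benches.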
# [2] = tested on: GLXMAW (Soybean, Williams); assay: Preemergence herbicidal evaluation; assay type: in vivo, Glycine max, (L.) Merr. cv Williams; conditions: preemergence, rated 4-5 weeks after treatment
# [3] = tested on: ECHORC (Echinochloa oryzoides); assay: Flooded paddy, preemergence weed control; assay type: in vivo, Echinochloa oryzoides (Ard.) Fritsch.; conditions: rated 3-4 weeks after treatment, 0-9 rating scale
# In short: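 Greenhouse paddy test, preemergence. Seeds planted in the top 0.5 cm of silt loam soil, which remained flooded at 1.5–3 cm depth. Scored 0-9 by visual comparison with control.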
# [4] = tested on: SAGPY (Sagittaria pygmaea); assay: Flooded paddy, postemergence weed control; assay type: in vivo, L.; conditions: postemergence weeds, rated 3-4 weeks after treatment
# In short: (§2)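 Weeds 3 to 5 cm tall plus rice seedlings at the 1.5 to 2.5 leaf stage were flooded, water held 1.5 to 3 cm above soil. Compounds in 50/50 v/v aqueous/acetone went directly into flood water at about 0.0320 to 0.2500 kg/ha. Greenhouse, 3 to 4 weeks; visual 0-9 rating versus control.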
# [5] = tested on: ORYSAT (Rice, Tebonnet); assay: Flooded paddy, post-transplant and postemergence rice tolerance; assay type: in vivo, Oryza sativa, (L.) Tebonnet; conditions: post-transplant rice, rated 3-4 weeks after treatment
# In short: as §2
# [6] = tested on: ECHORC (Echinochloa oryzoides); assay: Flooded paddy, postemergence weed control; assay type: in vivo, Echinochloa oryzoides (Ard.) Fritsch.; conditions: postemergence weeds, rated 3-4 weeks after treatment
# In short: as §2
# [7] = tested on: IPOHE (Ipomoea hederacea); assay: Preemergence herbicidal evaluation; assay type: in vivo, (L.) Jacq.; conditions: preemergence, rated 4-5 weeks after treatment
# [8] = tested on: ZEAMX (Corn, Field); assay: Preemergence herbicidal evaluation; assay type: in vivo, Zea mays, L.; conditions: preemergence, rated 4-5 weeks after treatment
# [9] = tested on: CYPSE (Cyperus serotinus); assay: Flooded paddy, postemergence weed control; assay type: in vivo, Rottb.; conditions: postemergence weeds, rated 3-4 weeks after treatment
# In short: as §2
# [10] = tested on: MOOVA (Monochoria vaginalis); assay: Flooded paddy, postemergence weed control; assay type: in vivo, Presl.; conditions: postemergence weeds, rated 3-4 weeks after treatment
# In short: as §2
# [11] = tested on: ABUTH (Abutilon theophrasti); assay: Preemergence herbicidal evaluation; assay type: in vivo, Medic.; conditions: preemergence, rated 4-5 weeks after treatment
# [12] = tested on: ORYSAT (Rice, Tebonnet); assay: Flooded paddy, post-transplant rice tolerance; assay type: in vivo, Oryza sativa, (L.) Tebonnet; conditions: flooded paddy, post-transplant rice, rated 3-4 weeks after treatment, 0-9 rating scale
# In short: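 Steps: transplant two ten-day-old seedlings into silt loam; flood to 1.5-3 cm above soil; apply herbicide post-transplant; maintain water on greenhouse benches; rate stand, vigor, malformation, size and chlorosis on a 0-9 visual scale versus control.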
# [13] = tested on: TRZAWR (Wheat, Winter, cv Riband); assay: Preemergence herbicidal evaluation; assay type: in vivo, Triticum aestivum; conditions: preemergence, rated 4-5 weeks after treatment
# In short: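 Steps: mix seeds with potting soil; plant on ~1 inch soil per cup; spray compound in aqueous acetone; hold on greenhouse benches with routine watering; rate 0–9 visually against control at 4–5 weeks.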
# [14] = tested on: ECHCG (Echinochloa crus-galli); assay: Postemergence herbicidal evaluation; assay type: in vivo, (L.) Beau
# In short: as §1
# [15] = tested on: GLXMAW (Soybean, Williams); assay: Postemergence herbicidal evaluation; assay type: in vivo, Glycine max, (L.) Merr. cv Williams
# In short: as §1
# [16] = tested on: CYPIR (Cyperus iria); assay: Flooded paddy, postemergence weed control; assay type: in vivo; conditions: postemergence weeds, rated 3-4 weeks after treatment
# Excerpt: Results of herbicide evaluation are expressed on a rating scale (0-9). The scale is based upon a visual observation of plant stand, vigor, malformation, size, chlorosis and overall plant appearance as compared with a control.
# Plastic containers containing weeds which are 3 to 5 cm tall and rice seedlings at the 1.5 to 2.5 leaf stage are flooded with water. The water is maintained at 1.5 to 3 cm above the soil surface for the duration of the experiment. Test compounds are applied as aqueous/acetone mixtures 50/50 v/v directly into the flood water to provide the equivalent of about 0.0320 to 0.2500 kg/ha of active ingredient. The treated containers are placed on greenhouse benches and cared for in accordance with conventional greenhouse procedures. Three to four weeks after treatment, the test is terminated and each container is examined and herbicidal effect rated according to the rating system provided in Example 87. The compounds evaluated are identified in Example 87 and plant species used are identified in Example 89.
smiles,measurement,setting,value
"CCc1cc(-c2nsc3ccc(-n4c(=O)cc(C(F)(F)F)n(C)c4=O)cc23)c(CC)s1 [Compound 8, 3-[3-(2,5-diethyl-3-thienyl)-1,2-benzisothiazol-5-yl]-1-methyl-6-(trifluoromethyl)uracil]","Postemergence herbicidal rating, ZEAMX",[1]; rate 0.0320 kg/ha,5.0
same,"Postemergence herbicidal rating, ZEAMX",[1]; rate 0.0620 kg/ha,5.0
same,GLXMAW preemergence herbicidal rating,[2]; Rate 0.0620 kg/ha,0.0
same,GLXMAW preemergence herbicidal rating,[2]; Rate 0.1250 kg/ha,0.0
same,GLXMAW preemergence herbicidal rating,[2]; Rate 0.2500 kg/ha,0.0
same,"herbicidal rating, ECHORC",[3]; rate 0.0080 kg/ha,2.0
same,"herbicidal rating, ECHORC",[3]; rate 0.0320 kg/ha,9.0
same,"herbicidal rating, ECHORC",[3]; rate 0.1250 kg/ha,9.0
same,herbicide rating (0-9) SAGPY,[4]; 0.0320 kg/ha into flood water,0.0
same,herbicide rating (0-9) SAGPY,[4]; 0.0620 kg/ha into flood water,0.0
same,herbicide rating (0-9) SAGPY,[4]; 0.1250 kg/ha into flood water,1.0
same,herbicide rating (0-9) ORYSAT (rice tolerance),[5]; 0.0320 kg/ha into flood water,1.0
same,herbicide rating (0-9) ORYSAT (rice tolerance),[5]; 0.0620 kg/ha into flood water,2.0
same,herbicide rating (0-9) ORYSAT (rice tolerance),[5]; 0.1250 kg/ha into flood water,2.0
same,herbicide rating (0-9) ECHORC,[6]; 0.0320 kg/ha into flood water,3.5
same,herbicide rating (0-9) ECHORC,[6]; 0.0620 kg/ha into flood water,4.0
same,herbicide rating (0-9) ECHORC,[6]; 0.1250 kg/ha into flood water,5.0
same,IPOHE preemergence herbicidal rating,[7]; Rate 0.0620 kg/ha,0.0
same,IPOHE preemergence herbicidal rating,[7]; Rate 0.1250 kg/ha,0.0
same,IPOHE preemergence herbicidal rating,[7]; Rate 0.2500 kg/ha,1.0
same,ZEAMX preemergence herbicidal rating,[8]; Rate 0.0620 kg/ha,0.0
same,ZEAMX preemergence herbicidal rating,[8]; Rate 0.1250 kg/ha,0.0
same,ZEAMX preemergence herbicidal rating,[8]; Rate 0.2500 kg/ha,3.0
same,herbicide rating (0-9) CYPSE,[9]; 0.0320 kg/ha into flood water,0.0
same,herbicide rating (0-9) CYPSE,[9]; 0.0620 kg/ha into flood water,0.0
same,herbicide rating (0-9) CYPSE,[9]; 0.1250 kg/ha into flood water,0.0
same,herbicide rating (0-9) MOOVA,[10]; 0.0320 kg/ha into flood water,4.5
same,herbicide rating (0-9) MOOVA,[10]; 0.0620 kg/ha into flood water,4.5
same,herbicide rating (0-9) MOOVA,[10]; 0.1250 kg/ha into flood water,5.5
same,ABUTH preemergence herbicidal rating,[11]; Rate 0.0620 kg/ha,0.0
same,ABUTH preemergence herbicidal rating,[11]; Rate 0.1250 kg/ha,9.0
same,ABUTH preemergence herbicidal rating,[11]; Rate 0.2500 kg/ha,9.0
same,"herbicidal rating, ORYSAT (rice tolerance)",[12]; rate 0.0080 kg/ha,1.0
same,"herbicidal rating, ORYSAT (rice tolerance)",[12]; rate 0.0320 kg/ha,1.5
same,"herbicidal rating, ORYSAT (rice tolerance)",[12]; rate 0.1250 kg/ha,2.7
same,TRZAWR preemergence herbicidal rating,[13]; Rate 0.0620 kg/ha,0.0
same,TRZAWR preemergence herbicidal rating,[13]; Rate 0.1250 kg/ha,0.0
same,TRZAWR preemergence herbicidal rating,[13]; Rate 0.2500 kg/ha,0.0
same,"Postemergence herbicidal rating, ECHCG",[14]; rate 0.0320 kg/ha,2.0
same,"Postemergence herbicidal rating, ECHCG",[14]; rate 0.0620 kg/ha,2.0
same,"Postemergence herbicidal rating, GLXMAW",[15]; rate 0.0320 kg/ha,5.0
same,"Postemergence herbicidal rating, GLXMAW",[15]; rate 0.0620 kg/ha,5.5
same,herbicide rating (0-9) CYPIR,[16]; 0.0320 kg/ha into flood water,9.0
same,herbicide rating (0-9) CYPIR,[16]; 0.0620 kg/ha into flood water,9.0
same,herbicide rating (0-9) CYPIR,[16]; 0.1250 kg/ha into flood water,9.0
